Our source for the EC50 and Emax values is patent publication US9751869B2, “LXR modulators” (BRISTOL-MYERS SQUIBB COMPANY, priority 2013, dated 2017).

In the experiment the target is T1, LXRβ (Homo sapiens, UniProt P55055).
T1 construct: Co-transfection expression plasmids, comprising full-length LXRα (pCMX-h LXRα or LXRβ (pCMX-hLXRβ)); expressed in transfected cells; host or cells: CV-1 African green monkey kidney cells, transient transfection with pCMX-hLXRβ
T1 sequence (P55055 1-460): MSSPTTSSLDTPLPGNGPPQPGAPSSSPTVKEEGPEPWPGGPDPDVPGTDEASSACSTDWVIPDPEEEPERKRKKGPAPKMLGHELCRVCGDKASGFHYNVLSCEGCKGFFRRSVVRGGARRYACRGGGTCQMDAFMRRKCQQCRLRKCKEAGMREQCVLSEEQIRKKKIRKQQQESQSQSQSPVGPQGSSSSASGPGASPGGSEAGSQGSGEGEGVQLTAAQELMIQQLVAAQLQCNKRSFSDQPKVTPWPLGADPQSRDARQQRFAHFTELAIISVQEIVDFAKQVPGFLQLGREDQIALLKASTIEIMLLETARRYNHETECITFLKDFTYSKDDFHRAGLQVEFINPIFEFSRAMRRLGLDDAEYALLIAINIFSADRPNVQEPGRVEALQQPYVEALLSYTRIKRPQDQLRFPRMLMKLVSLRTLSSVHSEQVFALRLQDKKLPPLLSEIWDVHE
T1 sequence (P19793 1-462 partner): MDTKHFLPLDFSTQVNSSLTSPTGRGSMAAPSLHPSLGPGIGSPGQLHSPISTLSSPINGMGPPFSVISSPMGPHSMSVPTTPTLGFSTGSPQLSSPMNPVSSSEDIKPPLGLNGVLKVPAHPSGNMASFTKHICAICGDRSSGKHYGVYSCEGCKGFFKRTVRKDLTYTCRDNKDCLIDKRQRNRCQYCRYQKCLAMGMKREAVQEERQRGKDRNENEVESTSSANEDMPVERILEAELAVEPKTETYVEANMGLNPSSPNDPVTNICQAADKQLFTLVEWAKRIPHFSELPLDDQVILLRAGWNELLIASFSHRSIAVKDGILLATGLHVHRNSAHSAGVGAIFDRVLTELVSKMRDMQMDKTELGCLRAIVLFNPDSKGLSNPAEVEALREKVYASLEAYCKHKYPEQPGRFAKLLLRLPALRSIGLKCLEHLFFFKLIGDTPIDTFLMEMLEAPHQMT
The experiment is described as follows: LXR/LXRE co-transfection assay (luciferase reporter) in CV-1 cells, LXRβ. Format: cell-based. The following applies: for EC50: CV-1 cells transfected with pCMX-hLXRβ and LXREx1-Tk-Luciferase, 20 hours incubation, read-out: LXRbeta agonism EC50; for Emax: CV-1 cells, relative to maximum response of high control N-(3-((4-fluorophenyl)-(naphthalene-2-sulfonyl)amino)propyl)-2,2-dimethylpropionamide, read-out: LXRbeta % EFFICACY
In a few lines: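 CV-1 cells transiently co-transfected with full-length human LXRβ, LXRE-Tk-luciferase reporter and β-galactosidase control, then exposed to compound (≤0.5% DMSO) for 20 h at 37 °C before luminescence read. EC50 from 10-point, half-log dose curves; efficacy relative to the sulfonamide high control, means of 2–3 experiments.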
In general terms: Reporter assays use an easily measured gene product as a stand-in for the process of interest.

SMILES strings stand for the structures.

For orientation: EC50 means the midpoint of the concentration-response curve. For the compound `CNC(=O)C(F)(F)c1cc(-c2ccc(-c3cc(F)cc(S(C)(=O)=O)c3)cc2-c2oc(C)nc2-c2ccc3c(c2)OC(F)(F)O3)n(C)n1` [Example 85, 2-(5-(3-(4-(2,2-difluorobenzo[d][1,3]dioxol-5-yl)-2-methyloxazol-5-yl)-3′-fluoro-5′-(methylsulfonyl)biphenyl-4-yl)-1-methyl-1H-pyrazol-3-yl)-2,2-difluoro-N-methylacetamide], the EC50 stood at 588 nM and the Emax is 55%.

For the compound `CS(=O)(=O)c1cccc(-c2ccc(-n3ccc(C(F)(F)F)n3)c(-c3nc(C4CC4)oc3-c3ccc(OC(F)(F)F)cc3)c2)c1` [Example 403, 2-cyclopropyl-4-(3′-(methylsulfonyl)-4-(3-(trifluoromethyl)-1H-pyrazol-1-yl)biphenyl-3-yl)-5-(4-(trifluoromethoxy)phenyl)oxazole], the EC50 worked out at 82 nM and the Emax is 62%.

For `Cc1nc(-c2ccc3c(c2)OC(F)(F)O3)c(-c2cc(-c3cccc(S(C)(=O)=O)c3)ccc2-n2ccc(CO)n2)o1` [Example 363, (1-(3-(4-(2,2-difluorobenzo[d][1,3]dioxol-5-yl)-2-methyloxazol-5-yl)-3′-(methylsulfonyl)-[1,1′-biphenyl]-4-yl)-1H-pyrazol-3-yl)methanol], the EC50 was found to be 1520 nM and the Emax stood at 22%.

As to `Cn1nc(C(F)(F)C(C)(C)O)cc1-c1ccc(-c2cccc(S(C)(=O)=O)c2)cc1-n1nncc1-c1ccc(OC(F)(F)F)cc1` [Example 7, 1,1-difluoro-2-methyl-1-(1-methyl-5-(3′-(methylsulfonyl)-3-(5-(4-(trifluoromethoxy)phenyl)-1H-1,2,3-triazol-1-yl)biphenyl-4-yl)-1H-pyrazol-3-yl)propan-2-ol], the EC50 is 377 nM and the Emax was found to be 66%.

As for `Cc1nc(-c2ccc3c(c2)OC(F)(F)O3)c(-c2cc(-c3cccc(C(C)(C)C(N)=O)c3)ccc2-n2ccc(C(N)=O)n2)o1` [Example 364, 1-(3′-(1-amino-2-methyl-1-oxopropan-2-yl)-3-(4-(2,2-difluorobenzo[d][1,3]dioxol-5-yl)-2-methyloxazol-5-yl)-[1,1′-biphenyl]-4-yl)-1H-pyrazole-3-carboxamide], the EC50 was 950 nM and the Emax came out at 18%.

Take `Cc1cc(C(C)(F)F)nn1-c1ccc(-c2cccc(S(C)(=O)=O)c2)cc1-n1nncc1-c1ccc(OC(F)(F)F)cc1` [Example 304, 1-{4-[3-(1,1-difluoroethyl)-5-methyl-1H-pyrazol-1-yl]-3′-(methylsulfonyl)biphenyl-3-yl}-5-{4-[(trifluoromethyl)oxy]phenyl}-1H-1,2,3-triazole]: the EC50 came out at 2860 nM and the Emax is 26%.

Take `Cc1nc(-c2cc(-c3cccc(S(C)(=O)=O)c3)ccc2-n2nc(C(F)(F)F)cc2Cl)c(-c2ccc3c(c2)OC(F)(F)O3)o1` [Example 412, 4-(4-(5-chloro-3-(trifluoromethyl)-1H-pyrazol-1-yl)-3′-(methylsulfonyl)biphenyl-3-yl)-5-(2,2-difluorobenzo[d][1,3]dioxol-5-yl)-2-methyloxazole]: the EC50 was 29 nM and the Emax is 93%.

`Cn1nc(C(F)(F)C(N)=O)cc1-c1ccc(-c2cccc(S(C)(=O)=O)c2)cc1-n1nncc1-c1ccc(OC(F)(F)F)cc1` [Example 4, 2,2-difluoro-2-(1-methyl-5-(3′-(methylsulfonyl)-3-(5-(4-(trifluoromethoxy)phenyl)-1H-1,2,3-triazol-1-yl)biphenyl-4-yl)-1H-pyrazol-3-yl)acetamide]: the EC50 came out at 1580 nM and the Emax came to 82%.

As for `Cc1nc(-c2ccc(OC(F)F)nc2)c(-c2cc(-c3cccc(S(C)(=O)=O)c3)ccc2-n2cc(Cl)c(C(F)(F)F)n2)o1` [Example 425], the EC50 came out at 24 nM and the Emax was determined as 99%.

Regarding `Cc1nc(-c2ccc3c(c2)OC(F)(F)O3)c(-c2cc(-c3cc(F)c(CO)c(S(C)(=O)=O)c3)ccc2-c2cc(C(F)(F)C(=O)O)nn2C)o1` [Example 75, 2-(5-(3-(4-(2,2-difluorobenzo[d][1,3]dioxol-5-yl)-2-methyloxazol-5-yl)-3′-fluoro-4′-(hydroxymethyl)-5′-(methylsulfonyl)biphenyl-4-yl)-1-methyl-1H-pyrazol-3-yl)-2,2-difluoroacetic acid], the EC50 was 7670 nM and the Emax was determined as 52%.

For `Cn1nc(C(C)(F)F)cc1-c1ccc(-c2cccc(S(C)(=O)=O)c2)cc1-n1nncc1-c1ccc(OC(F)(F)F)cc1` [Example 18, 1-{4-[3-(1,1-difluoroethyl)-1-methyl-1H-pyrazol-5-yl]-3′-(methylsulfonyl)biphenyl-3-yl}-5-{4-[(trifluoromethyl)oxy]phenyl}-1H-1,2,3-triazole], the EC50 came out at 57 nM and the Emax was 87%.

In the case of `Cc1nc(-c2ccc3c(c2)OC(F)(F)O3)c(-c2cc(-c3cccc(S(C)(=O)=O)c3)ccc2-n2nc(C(F)(F)F)cc2Cl)o1` [Example 346, 5-(4-(5-chloro-3-(trifluoromethyl)-1H-pyrazol-1-yl)-3′-(methylsulfonyl)biphenyl-3-yl)-4-(2,2-difluorobenzo[d][1,3]dioxol-5-yl)-2-methyloxazole], the EC50 amounted to 37 nM and the Emax is 90%.

For `Cn1nc(C(F)(F)C(=O)NC(C)(C)CO)cc1-c1ccc(-c2cccc(S(C)(=O)=O)c2)cc1-n1nncc1-c1ccc(OC(F)(F)F)cc1` [Example 28, 2,2-difluoro-N-(1-hydroxy-2-methylpropan-2-yl)-2-(1-methyl-5-(3′-(methylsulfonyl)-3-(5-(4-(trifluoromethoxy)phenyl)-1H-1,2,3-triazol-1-yl)-[1,1′-biphenyl]-4-yl)-1H-pyrazol-3-yl)acetamide], the EC50 was found to be 501 nM and the Emax was determined as 107%.

Consider `Cc1nc(-c2ccc(OC(F)(F)F)cc2)c(-c2cc(-c3cccc(S(C)(=O)=O)c3)ccc2-n2nc(C(F)(F)F)cc2C2CC2)o1` [Example 324, 5-(4-(5-cyclopropyl-3-(trifluoromethyl)-1H-pyrazol-1-yl)-3′-(methylsulfonyl)biphenyl-3-yl)-2-methyl-4-(4-(trifluoromethoxy)phenyl)oxazole], for which the EC50 was 1230 nM and the Emax came out at 44%.

`Cc1nc(-c2ccc3c(c2)OC(F)(F)O3)c(-c2cc(-c3cc(F)c(CO)c(S(C)(=O)=O)c3)ccc2-c2cc(CC(C)(C)O)nn2C)o1` [Example 120, 1-(5-(3-(4-(2,2-difluorobenzo[d][1,3]dioxol-5-yl)-2-methyloxazol-5-yl)-3′-fluoro-4′-(hydroxymethyl)-5′-(methylsulfonyl)-[1,1′-biphenyl]-4-yl)-1-methyl-1H-pyrazol-3-yl)-2-methylpropan-2-ol]: the EC50 came out at 46 nM and the Emax worked out at 32%.

Consider `Cn1nc(C(F)F)cc1-c1ccc(-c2cccc(S(C)(=O)=O)c2)cc1-n1nncc1-c1ccc(OC(F)(F)F)cc1` [Example 22, 1-{4-[3-(difluoromethyl)-1-methyl-1H-pyrazol-5-yl]-3′-(methylsulfonyl)biphenyl-3-yl}-5-{4-[(trifluoromethyl)oxy]phenyl}-1H-1,2,3-triazole], for which the EC50 came to 126 nM and the Emax was 80%.

With `CNS(=O)(=O)c1cccc(-c2ccc(-n3cc(Cl)c(C(F)(F)F)n3)c(-c3oc(C)nc3-c3ccc(OC(F)(F)F)cc3)c2)c1` [Example 444, 4′-(4-chloro-3-(trifluoromethyl)-1H-pyrazol-1-yl)-N-methyl-3′-(2-methyl-4-(4-(trifluoromethoxy)phenyl)oxazol-5-yl)-[1,1′-biphenyl]-3-sulfonamide], the EC50 was 76 nM and the Emax turned out to be 63%.

As to `Cc1nc(-c2ccc3c(c2)OC(F)(F)O3)c(-c2cc(-c3cccc(S(C)(=O)=O)c3)ccc2-c2cc(C(F)(F)CO)nn2C)o1` [Example 106, 2-(5-(3-(4-(2,2-difluorobenzo[d][1,3]dioxol-5-yl)-2-methyloxazol-5-yl)-3′-(methylsulfonyl)-[1,1′-biphenyl]-4-yl)-1-methyl-1H-pyrazol-3-yl)-2,2-difluoroethanol], the EC50 was determined as 71 nM and the Emax came to 64%.
